Test results: patent US11708283B2, “Metal-chelating compositions and their use in methods of removing or inhibiting barium scale” (CORNELL UNIVERSITY, priority 2018, dated 2023)
Read-outs that look alike come from different tables or passages of the source.

Assays:
[1] = cited from earlier work
[2] = cited from earlier work; remark: listed apart in the source
[3] = Thermodynamic stability constants of Ba^2+ complexes by pH-potentiometry; type: binding; conditions: for pBa (−log [M^2+]free): [M^2+] = 10^−6M, [L] = 10^−5M; for pBa (−log [M^2+]free) / log KBaH2L / log KBaHL / log KBaL / major species present at pH 7.4 in the presence of Ba^2+: 25° C.; for pBa (−log [M^2+]free) / log K′Ba (conditional stability constant) / log KBaH2L / log KBaHL / log KBaL: I = 0.1M KCl; for log K′Ba (conditional stability constant): pH 7.4, 25° C., calculated from protonation and stability constants; for log KBaH2L / log KBaHL / log KBaL: pH-potentiometry; for major species present at pH 7.4 in the presence of Ba^2+: speciation, [Ba^2+]tot=[L]tot=1.0 mM, I=0.1 M KCl
Method: Potentiometric measurements were carried out using a titrator equipped with a combination electrode and an exchange unit with an automatic burette (10 mL). The titration vessel was fitted with a removable glass cell (˜70 mL) and was thermostated at 25° C. using a circulating water bath. CO2 was excluded from the vessel prior to and during the titrations using a small positive pressure of Ar that was passed through a solution of 30 wt % KOH. […] Hydrochloric acid (0.1 M) was standardized against freshly prepared KOH. […] Before every titration, the electrode was calibrated in terms of hydrogen ion concentration by titrating a solution of standardized HCl (5 mM) containing supporting electrolyte (95 mM) with standardized KOH (2 mL).
ICP standards of calcium, strontium, and barium in dilute HNO3 were employed in the titrations. […] Stability constants were measured for the alkaline earth complexes of macropa^2− and macropaquin^2− by adding standardized KOH to a solution (20 mL) containing ligand (0.02 mmol), metal (0.02 mmol), 1 M KCl (1.9 mmol), and a portion of 0.1 M HCl sufficient to bring the total acid content (HCl+HNO3) to 0.1 mmol. The titration method employed either a 0.1 mV/min or 0.2 mV/min drift limit with a maximum wait time of 300 seconds between addition of base and measurement. […] These pH ranges reflect the portion of the titration curves in which metal binding is occurring. Using the protonation constants measured for each ligand, the stability constants (Equations 2-4, below) were calculated from the average of at least 3 independent titrations using appropriate software. Proton concentration was admitted as a refineable parameter. […] The errors given for the stability constants correspond to one standard deviation.
The alkaline earth stability constants for macroquin-SO3^4− were determined using a system in which each ligand titration was paired with a ligand-metal titration. These pairwise titrations permitted the ligand concentration for the metal-ligand titrations to be known with reasonable certainty from the refinement of the ligand-only titrations. […] The same titration method was employed as described above for macropa^2− and macropaquin^2−. […] Stability constants were calculated as described above.
Log conditional constants (log K′) of the alkaline earth complexes at pH 7.4 were calculated using the experimentally determined protonation and stability constants. These constants are expressed by the following equation:
In the above equation, [(ML)′]=[ML]+[MHL]+[MH2L], and [HnL]=[L], [HL], [H2L] . . . [HnL].

[4] = literature values, cited from earlier work; for log Ka1 / log Ka2 / log Ka3 / log Ka4: I = 0.1M KCl (footnotes b, c, d)
[5] = Protonation constants of the ligands by pH-potentiometric titration; type: physicochemical; conditions: for log Ka1 / log Ka2 / log Ka3 / log Ka4: pH-potentiometry, 25° C., I = 0.1M KCl; for occurrence of the fully deprotonated ligand in solution: ligand speciation versus pH
Method: Potentiometric measurements were carried out using a titrator equipped with a combination electrode and an exchange unit with an automatic burette (10 mL). The titration vessel was fitted with a removable glass cell (˜70 mL) and was thermostated at 25° C. using a circulating water bath. CO2 was excluded from the vessel prior to and during the titrations using a small positive pressure of Ar that was passed through a solution of 30 wt % KOH. Carbonate-free KOH (˜0.1 M) was prepared by dissolving KOH pellets (semiconductor grade, 99.99% trace metals basis) in freshly boiled water (≥18 MΩ-cm) and was standardized by potentiometric titration against potassium hydrogen phthalate. Hydrochloric acid (0.1 M) was standardized against freshly prepared KOH. Titration solutions were maintained at a constant ionic strength of 0.1 M using KCl (≥99.5%) and were equilibrated for 15 minutes prior to the addition of titrant. Before every titration, the electrode was calibrated in terms of hydrogen ion concentration by titrating a solution of standardized HCl (5 mM) containing supporting electrolyte (95 mM) with standardized KOH (2 mL). Data within the pH ranges of 2.5-3.2 and 10.8-11.2 were analyzed using software to obtain the standard electrode potential (E0) and slope factor. Owing to the sharp rise in pH at the titration endpoint (pH 3.2-10.8), data obtained in this region are subject to significant error and were therefore excluded from the calibration analysis. A pKw value of 13.78 was taken from the literature (Baes, C. F.; Mesmer, R. E. The Hydrolysis of Cations; Wiley: New York, 1976).
Stock solutions of macropa and macropaquin were prepared in H2O. […] The exact ligand concentrations were determined from the potentiometric titration curves with KOH. Protonation equilibria of macropa^2− and macropaquin^2− were determined by adding standardized KOH to a solution (20 mL) containing ligand (˜0.02 mmol), 0.1 M HCl (0.1 mmol), and 1 M KCl (1.9 mmol). The titration method employed a 0.1 mV/min drift limit with a maximum wait time of 90 sec between addition of base and measurement. At least 70 data points were collected over the pH range of 2.5-10.5 (macropa) or 2.5-11.3 (macropaquin). The protonation constants, defined in Eq. 1, were calculated from the average of at least 4 independent titrations using the appropriate software.
Both ligand (L) and proton concentrations were admitted as refineable parameters. The errors given for the protonation constants correspond to one standard deviation. The protonation constants measured for macropa^2− were consistent with those previously reported (Roca-Sabio et al., 2009, supra); log Ka5 was not able to be determined under the conditions employed here. Protonation equilibria of macroquin-SO3^4− were determined by titrating standardized HCl (˜5.19 mL) into a solution (62.5 mL) containing ligand (˜0.013 mmol, 10.4 mg), KOH (0.25 mmol), and 1 M KCl (6 mmol). The same titration method was employed as described above for the other two ligands. At least 90 data points over the pH range of 4.0-10.8 were included in the refinement; no additional protonation constants could be refined when data from pH 2.5-3.99 were included. The protonation constants were calculated from the average of 15 independent titrations.

[6] = Dissolution of barite ore in columns (ligand efficiency, GFAAS); conditions: ~48 mM ligand, soak 1 hour
[7] = literature values (footnotes b, c); cited from earlier work
[8] = bracketed literature value, I = 0.1M KNO3 (footnote e)
[9] = literature values (footnotes b, c)

SMILES	pBa (−log [M^2+]free) ([3]; pH 7.4)	log K′Ba (conditional stability constant) [3]	log KBaH2L [3]	log KBaHL [3]	log KBaL [3]	log Ka1 [4]	log Ka2 [4]	log Ka3 [4]	log Ka4 [4]	overall basicity of the ligand, sum of log Ka values [5]	log Ka1 [5]	log Ka2 [5]	log Ka3 [5]	log Ka4 [5]	major species present at pH 7.4 in the presence of Ba^2+ [3]	occurrence of the fully deprotonated ligand in solution [5]	other results
O=C(O)c1cccc(CN2CCOCCOCCN(Cc3cccc(C(=O)O)n3)CCOCCOCC2)n1 [macropa, 6,6-((1,4,10,13-tetraoxa-7,16-diazacyclooctadecane-7,16-diyl)bis(methylene))dipicolinic acid]	11.69	10.74	2.49(7)	3.76(2)	11.11	(7.41)^d	(6.85)	(3.32)	(2.36)	19.99	7.41	6.899	3.23(1)	2.45(5)	–	–	log KSrHL [1, 8]: [4.16]; log KSrL [1, 8]: [9.57]; log KCaL [2, 8]: [5.25]^e; log KBaL lower than that for DOTA by [3]: 0.64 log units; Ba^2+ bound by ligand ([3]; pH 4.0, speciation): 90%; Ba^2+ complexed by ligand ([3]; pH 5.1, speciation): 99%; log K′Ba greater than those for DOTA and DTPA by ([3]; pH 7.4): 5-6 orders of magnitude; selectivity for Ba^2+ over Ca^2+ (ratio of pM values) ([3]; pH 7.4): 1.79 fold; selectivity for Ba^2+ over Sr^2+ (ratio of pM values) ([3]; pH 7.4): 1.17 fold; log Ka5 ([4]; I = 0.1M KCl (footnotes c, d)): (1.69); fraction of ligand fully deprotonated (L^2−) ([5]; pH 7.4): 43%; log Ka1 ([5]; listed as macropa^2−): 7.41(1); log Ka2 ([5]; listed as macropa^2−): 6.899(3); ligand efficiency (percent of ligand saturated with Ba^2+) ([6]; pH 8, barite 3 g): 40%; ligand efficiency (percent of ligand saturated with Ba^2+) ([6]; pH 11, barite 3 g): 40%
O=C(O)CN1CCN(CC(=O)O)CCN(CC(=O)O)CCN(CC(=O)O)CC1 [DOTA, reference compound]	6.76	5.72	–	–	–	11.14	9.69	4.85	3.95	–	–	–	–	–	–	–	log KSrHL [1, 9]: 4.52; log KCaHL [2, 9]: 3.60; log KBaL [7]: 11.75
O=S(=O)(O)c1ccc(O)c2nc(CN3CCOCCOCCN(Cc4ccc5c(S(=O)(=O)O)ccc(O)c5n4)CCOCCOCC3)ccc12 [macroquin-SO3, 2,2′-((1,4,10,13-tetraoxa-7,16-diazacyclooctadecane-7,16-diyl)bis(methylene))bis(8-hydroxyquinoline-5-sulfonic acid)]	9.72	8.76	7.80(2)	9.24(7)	10.44	–	–	–	–	32.14	9.34	9.43	6.75	6.62	MH2L	do not exist in solution below pH 8	fraction of ligand present as H2L^2− ([5]; pH 7.4): 78%; log Ka1 ([5]; listed as macroquin-SO3^4−): 9.34(4); log Ka2 ([5]; listed as macroquin-SO3^4−): 9.43(1); log Ka3 ([5]; listed as macroquin-SO3^4−): 6.75(4); log Ka4 ([5]; listed as macroquin-SO3^4−): 6.62(4)
O=C(O)c1cccc(CN2CCOCCOCCN(Cc3ccc4cccc(O)c4n3)CCOCCOCC2)n1 [macropaquin, 6-((16-((8-hydroxyquinolin-2-yl)methyl)-1,4,10,13-tetraoxa-7,16-diazacyclooctadecan-7-yl)methyl)picolinic acid]	11.01	10.05	3.28(2)	9.76(2)	10.87	–	–	–	–	27.69	10.33	7.15	6.97	3.24(4)	MHL	do not exist in solution below pH 8	fraction of ligand as monoprotonated species HL^− ([5]; pH 7.4): 56%; log Ka1 ([5]; listed as macropaquin^2−): 10.33(4); log Ka2 ([5]; listed as macropaquin^2−): 7.15(3); log Ka3 ([5]; listed as macropaquin^2−): 6.97(2)
